Molecules are shown by their SMILES. pIC50: −log10 of the molar value. Converted amounts (≈) assume the structure as drawn.

Data set [1] can be described thus: Inhibition of PDE7.
The test system of data set [2] is PBMC. Kind of data set: Immunosuppressant activity in PBMC assessed as antiproliferation after 3 days by [3H]thymidine incorporation assay. The data set is classed as functional, cell-based. Particulars: Homo sapiens. On the technique in general: Uptake of a labelled nucleoside into DNA is a usual measure of proliferation.
The nature of data set [3]: Aqueous solubility at pH 6.5. The data set is classed as physicochemical.
For data set [4], the target named is cGMP-specific 3',5'-cyclic phosphodiesterase (Homo sapiens, UniProt O76074). Kind of data set: Inhibition of PDE5.
Data set [5] is described as follows: Inhibition of PDE4.
Data set [6] deals with PBMC. Kind of data set: Immunosuppressant activity in PBMC assessed as cytotoxicity. The data set is classed as functional, cell-based. Particulars: Homo sapiens.
Data set [7] is described as follows: Inhibition of PDE3.
Data set [8] is described as follows: Inhibition of PDE1.
Data set [9] concerns Splenocyte. Kind of data set: Immunosuppressant activity in wild type splenocyte assessed as antiproliferation. The class given is functional, cell-based. The settings on record: Mus musculus.
Data set [10] is described as follows: Immunosuppressant activity in PDE7 knockout splenocyte assessed as antiproliferation. The class given is functional, cell-based.

Compound `CCOC(=O)c1sc(Nc2nc(NCc3ccc(S(N)(=O)=O)cc3)c3c(ncn3CC)n2)nc1C` gave a pIC50 in [1] of 8.00.
In the case of `CCOC(=O)c1sc(Nc2nc(N3CCNCC3)c3c(n2)N(Cc2cc(OC)c(OC)c(OC)c2)CC3)nc1C`, the negative logarithm of the IC50 (pIC50) in data set [1] is 8.22.
In data set [1], `CCOC(=O)c1sc(Nc2nccc(NCc3ccc(S(N)(=O)=O)cc3)n2)nc1C` had a pIC50 of 6.66.
With `CCOC(=O)c1sc(Nc2nc(N3CCC(N(C)C)CC3)cc(N3CCCC(CO)C3)n2)nc1C` (stereo not given), the pIC50 in data set [1] was 6.92; in [2] it was 5.30; in data set [4], less than 5.00; in data set [5] it was 5.03; in [6] it was less than 4.60; in [7], less than 4.30. In data set [8], this compound gave a pIC50 of 4.96. The compound also showed a solubility in data set [3] of more than 20 µg/mL.
`CCOC(=O)c1sc(Nc2nc(N3CCC(O)CC3)cc(N3CCC(N(C)C)CC3)n2)nc1C`: the pIC50 in data set [1] was 7.12; in data set [2] it was 5.82; in data set [4], less than 5.00; in data set [5] it was less than 5.00; in [6], less than 4.60; in [7], less than 4.30. This compound gave a negative logarithm of the IC50 (pIC50) in data set [8] of 4.64. In data set [3], this compound showed a solubility of 20 µg/mL (≈ 40.8 µM).
For `CCOC(=O)c1sc(Nc2nc(N3CCC(O)CC3)cc(N3CCC(O)CC3)n2)nc1C`, the pIC50 is 7.20 in data set [1]; 6.92 in [2]; 6.15 in [4]; 6.68 in data set [9]; 5.49 in data set [5]; 6.82 in data set [10]. Further, the pIC50 was less than 4.60 in data set [6], 4.70 in data set [7] and 5.31 in data set [8]. The compound further showed a solubility in data set [3] of 20 µg/mL (≈ 43.2 µM).
For the compound `CCOC(=O)c1sc(Nc2nc(N3CCOCC3)cc(N3CCC(N(C)C)CC3)n2)nc1C`, the pIC50 in [1] is 6.89; in data set [2], 5.70; in [4], less than 5.00; in data set [5] it was 5.02; in [6], less than 4.60; in data set [7], 4.89. This compound had a negative-log IC50 (pIC50) in [8] of 4.82. For the same compound, the solubility in [3] was more than 20 µg/mL.
Turning to `CCOC(=O)c1sc(Nc2nc(N3CCC(N(C)C)CC3)cc(N3CCNC(C(N)=O)C3)n2)nc1C` (stereo not given), the pIC50 in data set [1] was 7.09; in data set [2] it was 5.51; in data set [4], 5.19; in [5] it was 5.10; in [6], less than 4.60; in data set [7], less than 4.30. The same compound showed a pIC50 in data set [8] of 4.64. The compound also came in with a solubility in data set [3] of more than 20 µg/mL.
Turning to `CCOC(=O)c1sc(Nc2nc(NCc3ccc(OC)c(OC)c3)cc(N3CCNCC3)n2)nc1C`, the negative-log IC50 (pIC50) in data set [1] was 7.51; in data set [2], 5.92; in data set [4], 6.49; in [5], 5.64; in data set [6] it was 4.92; in data set [7], 5.10. Also, the negative logarithm of the IC50 (pIC50) in data set [8] was less than 5.00. Besides, in [3], the solubility is more than 20 µg/mL.
Take `CCOC(=O)c1sc(Nc2nc(N3CCN(C)CC3)cc(N3CCN(CCN(C)C)CC3)n2)nc1C`: the negative-log IC50 (pIC50) in [1] is 7.25; in data set [2] it was 5.66; in [4], less than 5.00; in data set [5], 5.03; in data set [6], 4.82; in data set [7], 4.72. The compound also had a pIC50 in [8] of 4.57. The compound also returned a solubility in [3] of more than 20 µg/mL.
Regarding `CCOC(=O)c1sc(Nc2nc(N(C)Cc3cc(OC)c(OC)c(OC)c3)cc(N3CCNCC3)n2)nc1C`, the pIC50 in data set [1] is 8.00; in [2], 6.35; in [4] it was 5.12; in [5], 5.49; in data set [6], 4.85; in [7], 4.66. For the same compound, the negative logarithm of the IC50 (pIC50) in data set [8] was 5.10. The solubility in data set [3] is more than 20 µg/mL.
For `CCOC(=O)c1sc(Nc2nc(NCc3ccc(S(N)(=O)=O)cc3)cc(N3CCNCC3)n2)nc1C`, the negative logarithm of the IC50 (pIC50) is 8.00 in data set [1]; 5.14 in [2]; 7.14 in data set [4]; 6.66 in data set [5]; less than 4.60 in [6]; 5.55 in data set [7]. Moreover, the negative logarithm of the IC50 (pIC50) in [8] is 5.39. In data set [3], the solubility was found to be 20 µg/mL (≈ 37.5 µM).
As to `CCOC(=O)c1sc(Nc2nc(N(C)Cc3cc(OC)c(OC)c(OC)c3)cc(N3CCN(C)CC3)n2)nc1C`, the negative logarithm of the IC50 (pIC50) in data set [1] is 7.41; in data set [2] it was 6.16; in [4] it was 5.28; in data set [5], 5.29; in [6], less than 4.60; in data set [7] it was 4.57. This compound had a negative logarithm of the IC50 (pIC50) in data set [8] of 5.39. Moreover, the solubility in data set [3] was more than 20 µg/mL.
On to `CCOC(=O)c1sc(Nc2nc(NC)cc(NCc3ccc(S(N)(=O)=O)cc3)n2)nc1C`, for which the negative logarithm of the IC50 (pIC50) is 7.00 in [1]; 6.30 in data set [2]; 7.19 in data set [4]; 7.52 in data set [5]; less than 4.60 in data set [6]; less than 4.30 in [7]. This compound had a pIC50 in data set [8] of less than 5.00.
On to `CCOC(=O)c1sc(Nc2nc(N3CCC(N(C)C)CC3)cc(N3CCN(C)CC3)n2)nc1C`, for which the pIC50 is 7.08 in [1]; 5.60 in [2]; less than 5.00 in [4]; less than 5.00 in data set [5]; 4.82 in [6]; 4.34 in data set [7]. Further, the pIC50 in data set [8] was less than 4.30. This compound displayed a solubility in data set [3] of more than 20 µg/mL.

Usually pIC50 stands for the IC50 on a negative log10 scale, so that one unit is a factor of ten. Broadly, the solubility is the dissolved amount per volume that the medium holds. A high value points to much dissolved substance.
